Assay results reported in patent US6989389B2, “Aryl ether substituted imidazoquinolines” (3M Innovative Properties Co., priority 2000, dated 2006).

Tested on: Peripheral blood mononuclear cells (PBMC)
Experiment: Cytokine Induction in Human Cells (in vitro human blood cell system, IFN and TNF secreted into culture media)
Assay type: cell-based
Set-up: key to Lowest Effective Concentration (μM) Tumor Necrosis Factor / Lowest Effective Concentration (μM) Interferon: *: no induction was seen at any of the tested concentrations
Details: Homo sapiens, PBMC, lowest concentration found to induce interferon (α), 18 to 24 hours, ELISA, tested 30-0.014 μM, read-out: Lowest Effective Concentration (μM) Interferon
Procedure, shortened: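 Human donor PBMC (2×10^6 cells/mL, RPMI complete) incubated 18–24 h at 37 °C, 5% CO2 with compound, 3-fold dilutions 30–0.014 μM, ≤1% DMSO. IFN-α measured by ELISA, TNF-α by ELISA or IGEN immunoassay in supernatants (pg/mL). Value is lowest concentration inducing each cytokine.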

Row | SMILES | minimal effective concentration [µM]
1 | Nc1nc2ccccc2c2c1nc(CCC1CCCC1)n2CCOc1ccccc1 [Example 138, 2-(2-Cyclopentylethyl)-1-(2-phenoxyethyl)-1H-imidazo[4,5-c]quinolin-4-amine] | 1.11
2 | Cc1nc2c(N)nc3ccccc3c2n1CCCOCC#Cc1ccccc1 [Example 147, 2-Methyl-1-{3-[(3-phenylprop-2-ynyl)oxy]propyl}-H-imidazo[4,5-c]quinolin-4-amine] | 0.37
3 | Cc1nc2c(N)nc3ccccc3c2n1CCCOCCCc1ccccc1 [Example 148, 2-Methyl-1-[3-(3-phenylpropoxy)propyl]-1H-imidazo[4,5-c]quinolin-4-amine] | 1.11
4 | Cc1nc2c(N)nc3ccccc3c2n1CCCCOCC#Cc1ccccc1 [Example 149, 2-Methyl-1-{4-[(3-phenylprop-2-ynyl)oxy]butyl}-1H-imidazo[4,5-c]quinolin-4-amine] | 0.041
5 | Cc1nc2c(N)nc3ccccc3c2n1CCCCOCCCc1ccccc1 [Example 150, 2-Methyl-1 [4-(3-phenylpropoxy)butyl]-1H-imidazo[4,5-c]quinolin-4-amine] | 0.37

Same assay, conditions: Homo sapiens, PBMC, lowest concentration found to induce tumor necrosis factor (α), 18 to 24 hours, ELISA or IGEN assay, tested 30-0.014 μM, read-out: Lowest Effective Concentration (μM) Tumor Necrosis Factor

Row | SMILES | minimal effective concentration [µM]
6 | Cc1nc2c(N)nc3ccccc3c2n1CCCOCC#Cc1ccccc1 [Example 147, 2-Methyl-1-{3-[(3-phenylprop-2-ynyl)oxy]propyl}-H-imidazo[4,5-c]quinolin-4-amine] | 0.37
7 | Cc1nc2c(N)nc3ccccc3c2n1CCCOCCCc1ccccc1 [Example 148, 2-Methyl-1-[3-(3-phenylpropoxy)propyl]-1H-imidazo[4,5-c]quinolin-4-amine] | 1.11
8 | Cc1nc2c(N)nc3ccccc3c2n1CCCCOCC#Cc1ccccc1 [Example 149, 2-Methyl-1-{4-[(3-phenylprop-2-ynyl)oxy]butyl}-1H-imidazo[4,5-c]quinolin-4-amine] | 0.37
9 | Cc1nc2c(N)nc3ccccc3c2n1CCCCOCCCc1ccccc1 [Example 150, 2-Methyl-1 [4-(3-phenylpropoxy)butyl]-1H-imidazo[4,5-c]quinolin-4-amine] | 1.11

Same assay, conditions: lowest concentration found to induce interferon (α), 18 to 24 hours, ELISA, tested 30-0.014 μM

Row | SMILES | Lowest Effective Concentration (μM) Interferon
10 | Nc1nc2ccccc2c2c1nc(C1CCOC1)n2CCOc1ccccc1 (stereo not drawn) [Example 139, 1-(2-Phenoxyethyl)-2-tetrahydrofuran-3-yl-1H-imidazo[4,5-c]quinolin-4-amine] | *
11 | Nc1nc2ccccc2c2c1nc(-c1ccccc1)n2CCOc1ccccc1 [Example 140, 1-(2-Phenoxyethyl)-2-phenyl-1H-imidazo[4,5-c]quinolin-4-amine] | *

Same assay, conditions: lowest concentration found to induce interferon (α), 18 to 24 hours, ELISA, tested 30-0.014 μM, read-out: Lowest Effective Concentration (μM) Interferon

Row | SMILES | minimal effective concentration [µM]
12 | CCC(COCc1ccc(C#N)cc1)n1cnc2c(N)nc3ccccc3c21 (stereo not drawn) [Example 141, 4-{[2-(4-Amino-1H-imidazo[4,5-c]quinolin-1-yl)butoxy]methyl}benzonitrile] | 0.12

Same assay, conditions: lowest concentration found to induce tumor necrosis factor (α), 18 to 24 hours, ELISA or IGEN assay, tested 30-0.014 μM

Row | SMILES | Lowest Effective Concentration (μM) Tumor Necrosis Factor
13 | Nc1nc2ccccc2c2c1nc(CCC1CCCC1)n2CCOc1ccccc1 [Example 138, 2-(2-Cyclopentylethyl)-1-(2-phenoxyethyl)-1H-imidazo[4,5-c]quinolin-4-amine] | *
14 | Nc1nc2ccccc2c2c1nc(C1CCOC1)n2CCOc1ccccc1 (stereo not drawn) [Example 139, 1-(2-Phenoxyethyl)-2-tetrahydrofuran-3-yl-1H-imidazo[4,5-c]quinolin-4-amine] | *
15 | Nc1nc2ccccc2c2c1nc(-c1ccccc1)n2CCOc1ccccc1 [Example 140, 1-(2-Phenoxyethyl)-2-phenyl-1H-imidazo[4,5-c]quinolin-4-amine] | *

Same assay, conditions: lowest concentration found to induce tumor necrosis factor (α), 18 to 24 hours, ELISA or IGEN assay, tested 30-0.014 μM, read-out: Lowest Effective Concentration (μM) Tumor Necrosis Factor

Row | SMILES | minimal effective concentration [µM]
16 | CCC(COCc1ccc(C#N)cc1)n1cnc2c(N)nc3ccccc3c21 (stereo not drawn) [Example 141, 4-{[2-(4-Amino-1H-imidazo[4,5-c]quinolin-1-yl)butoxy]methyl}benzonitrile] | 0.12

Tested on: not given
Experiment: not given
Details: not given

Row | melting point [°C] | SMILES
17 | 235.9 to 236.3 | Nc1nc2ccccc2c2c1nc(C1CCOC1)n2CCOc1ccccc1 (stereo not drawn) [Example 139, 1-(2-Phenoxyethyl)-2-tetrahydrofuran-3-yl-1H-imidazo[4,5-c]quinolin-4-amine]
18 | 160 to 161.6 | Cc1nc2c(N)nc3ccccc3c2n1CCCOCC#Cc1ccccc1 [Example 147, 2-Methyl-1-{3-[(3-phenylprop-2-ynyl)oxy]propyl}-H-imidazo[4,5-c]quinolin-4-amine]
19 | 145 to 146.1 | Cc1nc2c(N)nc3ccccc3c2n1CCCOCCCc1ccccc1 [Example 148, 2-Methyl-1-[3-(3-phenylpropoxy)propyl]-1H-imidazo[4,5-c]quinolin-4-amine]
20 | 105.1 to 106 | Cc1nc2c(N)nc3ccccc3c2n1CCCCOCCCc1ccccc1 [Example 150, 2-Methyl-1 [4-(3-phenylpropoxy)butyl]-1H-imidazo[4,5-c]quinolin-4-amine]

The remaining lines, values behind:

Row | SMILES | melting point [°C]
21 | Nc1nc2ccccc2c2c1nc(CCC1CCCC1)n2CCOc1ccccc1 [Example 138, 2-(2-Cyclopentylethyl)-1-(2-phenoxyethyl)-1H-imidazo[4,5-c]quinolin-4-amine] | 165
22 | Nc1nc2ccccc2c2c1nc(-c1ccccc1)n2CCOc1ccccc1 [Example 140, 1-(2-Phenoxyethyl)-2-phenyl-1H-imidazo[4,5-c]quinolin-4-amine] | 182.5 to 184.6
23 | CCC(COCc1ccc(C#N)cc1)n1cnc2c(N)nc3ccccc3c21 (stereo not drawn) [Example 141, 4-{[2-(4-Amino-1H-imidazo[4,5-c]quinolin-1-yl)butoxy]methyl}benzonitrile] | 160 to 161
24 | Cc1nc2c(N)nc3ccccc3c2n1CCCCOCC#Cc1ccccc1 [Example 149, 2-Methyl-1-{4-[(3-phenylprop-2-ynyl)oxy]butyl}-1H-imidazo[4,5-c]quinolin-4-amine] | 109.2 to 110
